Measurements reported in ChEMBL document CHEMBL1148323, “Conformationally constrained peptide analogues of pTyr-Glu-Glu-Ile as inhibitors of the Src SH2 domain binding” (J Med Chem, 2004).

Biological target: Proto-oncogene tyrosine-protein kinase Src (Homo sapiens, UniProt P12931)
Assay: Concentration of compound required for inhibiting the binding of the fluorescent probe to the c-Src tyrosine kinase SH2 domain by 50%

Chain of Proto-oncogene tyrosine-protein kinase Src (P12931 2-536 limits assumed): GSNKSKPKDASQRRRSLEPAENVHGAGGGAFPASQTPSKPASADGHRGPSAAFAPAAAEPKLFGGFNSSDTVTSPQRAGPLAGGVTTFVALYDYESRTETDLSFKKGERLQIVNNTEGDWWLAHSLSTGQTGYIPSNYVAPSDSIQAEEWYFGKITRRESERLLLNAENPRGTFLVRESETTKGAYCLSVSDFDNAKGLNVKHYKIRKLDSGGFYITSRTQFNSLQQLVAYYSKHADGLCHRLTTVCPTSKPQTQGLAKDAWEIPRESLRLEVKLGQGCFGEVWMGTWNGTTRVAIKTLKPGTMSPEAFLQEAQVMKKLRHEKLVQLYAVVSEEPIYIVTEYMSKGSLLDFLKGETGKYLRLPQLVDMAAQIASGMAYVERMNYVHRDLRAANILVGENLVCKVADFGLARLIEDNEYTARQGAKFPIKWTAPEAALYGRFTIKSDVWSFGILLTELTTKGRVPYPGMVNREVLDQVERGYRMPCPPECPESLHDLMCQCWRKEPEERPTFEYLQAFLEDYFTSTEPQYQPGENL

IC50 | SMILES
25.7 µM | CC(=O)N[C@@H](Cc1ccc(OP(=O)(O)O)cc1)C(=O)N[C@@H](CCC(=O)O)C(=O)N[C@H](CC(=O)O)CC(=O)N[C@H](C(=O)O)C(C)C
1.2 µM | CC[C@@H](C)[C@H](NC(=O)[C@H](CCC(=O)O)NC(=O)CC[C@@H]1NC(=O)[C@H](Cc2ccc(OP(=O)(O)O)cc2)NC1=O)C(=O)O
3.3 µM | CC[C@H](C)[C@H](NC(=O)[C@H](CCC(=O)O)NC(=O)[C@@H]1CCC(=O)N[C@@H](Cc2ccc(OP(=O)(O)O)cc2)C(=O)N1)C(=O)O
90.7 µM | CC[C@H](C)[C@H](NC(=O)C[C@H](NC(=O)[C@H](CCC(=O)O)NC(=O)[C@H](Cc1ccc(OP(=O)(O)O)cc1)NC(C)=O)C(=O)O)C(=O)O
76.3 µM | CC(C)[C@H](NC(=O)C[C@@H](CC(=O)O)NC(=O)[C@H](CCC(=O)O)NC(=O)[C@@H](N)Cc1ccc(OP(=O)(O)O)cc1)C(=O)O
5.9 µM | CC[C@H](C)[C@H](NC(=O)[C@@H]1CCC(=O)N[C@@H](Cc2ccc(OP(=O)(O)O)cc2)C(=O)N[C@@H](CCC(=O)O)C(=O)N1)C(=O)O
> 100 µM | CC[C@@H](C)[C@H](NC(=O)[C@H](CCC(=O)O)NC(=O)C[C@H](NC(=O)[C@@H](N)Cc1ccc(OP(=O)(O)O)cc1)C(=O)O)C(=O)O
1.1 µM | CC[C@H](C)[C@H](NC(=O)CC[C@@H]1NC(=O)[C@H](CCC(=O)O)NC(=O)[C@H](Cc2ccc(OP(=O)(O)O)cc2)NC1=O)C(=O)O

More lines, now with the values behind:

SMILES | IC50
CC[C@@H](C)[C@H](NC(=O)[C@H](CCC(=O)O)NC(=O)C[C@H](NC(=O)[C@H](Cc1ccc(OP(=O)(O)O)cc1)NC(C)=O)C(=O)O)C(=O)O | 75.4 µM
CC[C@H](C)[C@H](NC(=O)C[C@H](NC(=O)[C@H](CCC(=O)O)NC(=O)[C@@H](N)Cc1ccc(OP(=O)(O)O)cc1)C(=O)O)C(=O)O | > 100 µM
CC[C@H](C)[C@H](NC(=O)C[C@@H]1NC(=O)[C@H](CCC(=O)O)NC(=O)[C@H](Cc2ccc(OP(=O)(O)O)cc2)NC1=O)C(=O)O | 1.5 µM
CC[C@H](C)[C@H](NC(=O)CC[C@H](NC(=O)[C@H](CCC(=O)O)NC(=O)[C@H](Cc1ccc(OP(=O)(O)O)cc1)NC(C)=O)C(=O)O)C(=O)O | 80.7 µM
CC[C@@H](C)[C@H](NC(=O)[C@H](CCC(=O)O)NC(=O)C[C@@H]1NC(=O)[C@H](Cc2ccc(OP(=O)(O)O)cc2)NC1=O)C(=O)O | 12.1 µM
CC[C@@H](C)[C@H](NC(=O)[C@H](CCC(=O)O)NC(=O)CC[C@H](NC(=O)[C@@H](N)Cc1ccc(OP(=O)(O)O)cc1)C(=O)O)C(=O)O | > 100 µM
CC[C@@H](C)[C@H](NC(=O)[C@H](CCC(=O)O)NC(=O)CC[C@H](NC(=O)[C@H](Cc1ccc(OP(=O)(O)O)cc1)NC(C)=O)C(=O)O)C(=O)O | 69.5 µM
CC(C)[C@H](NC(=O)C[C@@H](CCC(=O)O)NC(=O)C(NC(=O)[C@@H](N)Cc1ccc(OP(=O)(O)O)cc1)C(=O)O)C(=O)O (single isomer, unassigned) | 83.2 µM
CC[C@H](C)[C@H](NC(=O)CC[C@H](NC(=O)[C@H](CCC(=O)O)NC(=O)[C@@H](N)Cc1ccc(OP(=O)(O)O)cc1)C(=O)O)C(=O)O | > 100 µM
CC(=O)N[C@@H](Cc1ccc(OP(=O)(O)O)cc1)C(=O)N[C@@H](C(=O)O)C(=O)N[C@H](CCC(=O)O)CC(=O)N[C@H](C(=O)O)C(C)C | 34.6 µM
